Type in all cases: biochemical
For one test, the target named is T1, HDAC9 enzyme (Homo sapiens, UniProt Q9UKV0).
T1 construct: transducing full length HDAC9 gene into Sf-9 insect cells; made in house; host or cells: Sf-9 insect cells
The test can be described thus: HDAC9 enzyme inhibitory assay (HDAC-Glo class IIa). Particulars: wells without enzyme = 100% inhibition; for inhibition at 1 µM: read-out: HDAC9 inhibitory rate (%) (1 μM). In short, it runs like this:
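Full-length human HDAC9 from Sf-9 cells, Ni-NTA purified, preincubated with compound for 60 min at room temperature in Tris-HCl pH 7.5 buffer (MgCl2, KCl, NaCl, glutathione, Tween-20). HDAC-Glo class IIa substrate-developer added; luminescence read after 20 min, with no-enzyme wells defining 100% inhibition.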

The target in another test is T2, HDAC6 enzyme (Homo sapiens, UniProt Q9UBN7).
T2 construct: transducing full length HDAC1 and HDAC6 genes into Sf-9 insect cells; GST; purchased SignalChem; host or cells: Sf-9 insect cells
T2 sequence (Q9UBN7 1-1215): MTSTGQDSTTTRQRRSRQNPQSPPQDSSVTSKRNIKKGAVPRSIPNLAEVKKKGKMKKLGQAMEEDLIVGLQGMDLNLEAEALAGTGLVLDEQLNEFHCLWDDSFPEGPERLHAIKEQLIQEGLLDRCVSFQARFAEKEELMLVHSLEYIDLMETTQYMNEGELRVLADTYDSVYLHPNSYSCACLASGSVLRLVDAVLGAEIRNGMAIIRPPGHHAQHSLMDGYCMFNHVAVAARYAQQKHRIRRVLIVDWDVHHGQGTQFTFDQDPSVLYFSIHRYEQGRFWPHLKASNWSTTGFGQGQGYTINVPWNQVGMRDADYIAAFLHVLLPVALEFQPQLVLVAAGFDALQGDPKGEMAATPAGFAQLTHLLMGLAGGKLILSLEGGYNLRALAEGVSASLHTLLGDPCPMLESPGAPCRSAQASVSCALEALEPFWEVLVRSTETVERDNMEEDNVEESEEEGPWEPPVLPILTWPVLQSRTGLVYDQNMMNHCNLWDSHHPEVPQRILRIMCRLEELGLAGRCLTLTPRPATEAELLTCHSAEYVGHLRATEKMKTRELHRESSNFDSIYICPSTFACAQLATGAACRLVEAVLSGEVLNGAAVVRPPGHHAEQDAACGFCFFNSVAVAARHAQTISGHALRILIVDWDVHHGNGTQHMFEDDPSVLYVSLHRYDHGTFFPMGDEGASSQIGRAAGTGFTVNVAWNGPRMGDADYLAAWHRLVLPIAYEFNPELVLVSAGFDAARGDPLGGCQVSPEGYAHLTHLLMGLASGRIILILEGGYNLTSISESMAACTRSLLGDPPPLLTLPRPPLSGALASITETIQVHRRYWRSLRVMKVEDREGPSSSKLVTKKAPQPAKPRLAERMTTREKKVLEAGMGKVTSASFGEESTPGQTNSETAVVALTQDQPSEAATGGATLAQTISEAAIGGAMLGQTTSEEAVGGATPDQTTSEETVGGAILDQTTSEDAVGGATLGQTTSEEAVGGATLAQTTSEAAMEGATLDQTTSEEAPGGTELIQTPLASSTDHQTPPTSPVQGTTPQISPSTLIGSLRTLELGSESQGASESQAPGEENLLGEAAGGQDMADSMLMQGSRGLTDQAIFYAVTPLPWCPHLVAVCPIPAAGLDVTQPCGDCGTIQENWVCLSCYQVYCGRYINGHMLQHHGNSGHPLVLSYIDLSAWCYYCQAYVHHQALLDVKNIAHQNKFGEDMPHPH
The experiment in a line: HDAC6 enzyme inhibitory assay (HDAC-Glo I/II Assay kit). Particulars: wells without enzyme = 100% inhibition; for inhibition at 1 µM: read-out: HDAC6 inhibitory rate (%) (1 μM). Summed up:
(§1)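 Full-length human HDAC1 or HDAC6, expressed in Sf-9 cells and GST-purified, was preincubated with compound for 60 min at room temperature in Tris-HCl pH 7.5 buffer with MgCl2, KCl, NaCl, glutathione and Tween-20. HDAC-Glo substrate-developer was then added, and luminescence was read after 20 min. Inhibition was referenced to no-enzyme wells as 100%.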

The target in another test is T3, HDAC1 enzyme (Homo sapiens, UniProt Q13547).
T3 construct: transducing full length HDAC1 and HDAC6 genes into Sf-9 insect cells; GST; purchased SignalChem; host or cells: Sf-9 insect cells
The test can be described thus: HDAC1 enzyme inhibitory assay (HDAC-Glo I/II Assay kit). Particulars: wells without enzyme = 100% inhibition; for inhibition at 1 µM: read-out: HDAC1 inhibitory rate (%) (1 μM). In short, it runs like this: as §1

SMILES strings stand for the structures.

T1 sequence (Q9UKV0 whole entry, species assumed): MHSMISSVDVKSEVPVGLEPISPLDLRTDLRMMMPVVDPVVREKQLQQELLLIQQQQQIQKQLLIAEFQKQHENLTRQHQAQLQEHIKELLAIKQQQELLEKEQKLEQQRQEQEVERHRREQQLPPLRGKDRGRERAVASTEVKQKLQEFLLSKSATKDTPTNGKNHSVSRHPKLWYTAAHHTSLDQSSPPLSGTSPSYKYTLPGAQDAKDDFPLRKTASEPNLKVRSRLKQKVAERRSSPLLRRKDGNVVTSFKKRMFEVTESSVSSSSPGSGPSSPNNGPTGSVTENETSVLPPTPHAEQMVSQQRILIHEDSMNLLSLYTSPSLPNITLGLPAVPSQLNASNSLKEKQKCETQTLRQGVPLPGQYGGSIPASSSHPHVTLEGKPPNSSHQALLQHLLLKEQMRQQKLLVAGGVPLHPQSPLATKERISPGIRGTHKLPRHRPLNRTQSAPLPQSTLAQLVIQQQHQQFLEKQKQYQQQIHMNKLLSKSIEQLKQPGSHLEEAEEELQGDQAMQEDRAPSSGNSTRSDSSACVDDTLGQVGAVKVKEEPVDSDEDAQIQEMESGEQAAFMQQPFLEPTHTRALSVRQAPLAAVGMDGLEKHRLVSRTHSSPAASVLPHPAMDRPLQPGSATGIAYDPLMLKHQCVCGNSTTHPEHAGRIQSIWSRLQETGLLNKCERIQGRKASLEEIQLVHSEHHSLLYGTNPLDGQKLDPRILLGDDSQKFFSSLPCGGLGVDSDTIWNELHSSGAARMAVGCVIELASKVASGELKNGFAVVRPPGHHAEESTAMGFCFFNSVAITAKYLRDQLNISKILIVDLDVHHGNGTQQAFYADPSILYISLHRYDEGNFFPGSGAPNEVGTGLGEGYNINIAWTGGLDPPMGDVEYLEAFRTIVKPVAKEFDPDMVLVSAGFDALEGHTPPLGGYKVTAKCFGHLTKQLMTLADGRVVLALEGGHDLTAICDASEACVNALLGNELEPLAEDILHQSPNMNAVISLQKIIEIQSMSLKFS
T3 sequence (Q13547 whole entry): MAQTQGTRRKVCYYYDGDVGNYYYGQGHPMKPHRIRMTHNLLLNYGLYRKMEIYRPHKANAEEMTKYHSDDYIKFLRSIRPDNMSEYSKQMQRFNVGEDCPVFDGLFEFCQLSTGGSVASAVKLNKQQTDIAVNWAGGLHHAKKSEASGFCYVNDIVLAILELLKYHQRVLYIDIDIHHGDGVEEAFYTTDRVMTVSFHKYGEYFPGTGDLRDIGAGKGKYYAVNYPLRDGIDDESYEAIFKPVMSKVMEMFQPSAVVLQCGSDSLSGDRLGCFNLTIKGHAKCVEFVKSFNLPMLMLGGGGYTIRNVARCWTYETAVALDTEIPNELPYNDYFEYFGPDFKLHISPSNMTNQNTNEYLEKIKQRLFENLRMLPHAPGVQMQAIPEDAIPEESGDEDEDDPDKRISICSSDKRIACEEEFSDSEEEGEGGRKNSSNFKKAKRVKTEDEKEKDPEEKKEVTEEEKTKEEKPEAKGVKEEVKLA

Consider `CN(C)c1cccc(C(=O)NCC2CCCCN2C(=O)Nc2ccc(-c3noc(C(F)(F)F)n3)cc2)c1` (stereo not drawn) [Example 28, 2-(((3-(dimethylamino)benzoyl)amino)methyl)-N-(4-(5-(trifluoromethyl)-1,2,4-oxadiazol-3-yl)phenyl)piperidine-1-carboxamide], for which the inhibition at 1 µM is 86% at HDAC9 enzyme, 2% on HDAC6 enzyme and 4% on HDAC1 enzyme.

With `O=C(NCC1CCCCN1C(=O)Nc1ccc(-c2noc(C(F)(F)F)n2)cc1)c1cccc(F)c1` (stereo not drawn) [Example 5, 2-(((3-fluorobenzoyl)amino)methyl)-N-(4-(5-(trifluoromethyl)-1,2,4-oxadiazol-3-yl)phenyl)piperidine-1-carboxamide], the inhibition at 1 µM at HDAC9 enzyme amounted to 95%; on HDAC6 enzyme, 4%; on HDAC1 enzyme, 35%.

As for `N#Cc1ccc(C(=O)NCC2CCCCN2C(=O)Nc2ccc(-c3noc(C(F)(F)F)n3)cc2)cc1` (stereo not drawn) [Example 21, 2-(((4-cyanobenzoyl)amino)methyl)-N-(4-(5-(trifluoromethyl)-1,2,4-oxadiazol-3-yl)phenyl)piperidine-1-carboxamide], the results for the inhibition at 1 µM at HDAC9 enzyme, on HDAC6 enzyme and on HDAC1 enzyme were 94%, 0% and 28%, respectively.

Take `O=C(NCC1CCCCN1C(=O)Nc1ccc(-c2noc(C(F)(F)F)n2)cc1)c1cc(Cl)cc(Cl)c1` (stereo not drawn) [Example 33, 2-(((3,5-dichlorobenzoyl)amino)methyl)-N-(4-(5-(trifluoromethyl)-1,2,4-oxadiazol-3-yl)phenyl)piperidine-1-carboxamide]: the inhibition at 1 µM is 48% on HDAC9 enzyme, 0% at HDAC6 enzyme and -5% at HDAC1 enzyme.

For the molecule `CC(=O)N1CCC(C(=O)NCC2CCCCN2C(=O)Nc2ccc(-c3noc(C(F)(F)F)n3)cc2)CC1` (stereo not drawn) [Example 53, 2-((((1-acettylpiperidin-4-yl)carbonyl)amino)methyl)-N-(4-(5-(trifluoromethyl)-1,2,4-oxadiazol-3-yl)phenyl)piperidine-1-carboxamide], at HDAC9 enzyme, the “HDAC9 inhibitory rate (%) (1 μM)” value is 94%. Besides, the “HDAC6 inhibitory rate (%) (1 μM)” value at HDAC6 enzyme came out at 7%. In addition, at HDAC1 enzyme, the “HDAC1 inhibitory rate (%) (1 μM)” value stood at 32%.

As to `Cc1cccc(C(=O)NCC2CCCCN2C(=O)Nc2ccc(-c3noc(C(F)(F)F)n3)cc2)c1` (stereo not drawn) [Example 11, 2-(((3-methylbenzoyl)amino)methyl)-N-(4-(5-(trifluoromethyl)-1,2,4-oxadiazol-3-yl)phenyl)piperidine-1-carboxamide], the inhibition at 1 µM on HDAC9 enzyme came to 90%; at HDAC6 enzyme, 5%; on HDAC1 enzyme, 20%.

Consider `CC(C)(C)OC(=O)NCC1CCCCN1C(=O)Nc1ccc(-c2noc(C(F)(F)F)n2)cc1` (stereo not drawn) [Example 3, tert-butyl ((1-((4-(5-(trifluoromethyl)-1,2,4-oxadiazol-3-yl)phenyl)carbamoyl)piperidin-2-yl)methyl) carbamate], for which the “HDAC9 inhibitory rate (%) (1 μM)” value on HDAC9 enzyme came to 87%. Besides, the “HDAC6 inhibitory rate (%) (1 μM)” value at HDAC6 enzyme is 5%. Moreover, on HDAC1 enzyme, the “HDAC1 inhibitory rate (%) (1 μM)” value is 51%.

Regarding `O=C(NCC1CCCCN1C(=O)Nc1ccc(-c2noc(C(F)(F)F)n2)cc1)C1CCOCC1` (stereo not drawn) [Example 51, 2-(((tetrahydro-2H-pyran-4-ylcarbonyl)amino)methyl)-N-(4-(5-(trifluoromethyl)-1,2,4-oxadiazol-3-yl)phenyl)piperidine-1-carboxamide], the inhibition at 1 µM on HDAC9 enzyme is 97%; at HDAC6 enzyme, 8%; on HDAC1 enzyme, 73%.

For `Cc1cc(C(=O)NCC2CCCCN2C(=O)Nc2ccc(-c3noc(C(F)(F)F)n3)cc2)ccn1` (stereo not drawn) [Example 57, 2-methyl-N-((1-((4-(5-(trifluoromethyl)-1,2,4-oxadiazol-3-yl)phenyl)carbamoyl)piperidin-2-yl)methyl)isonicotinamide], the inhibition at 1 µM was 94% at HDAC9 enzyme, 6% on HDAC6 enzyme and 38% on HDAC1 enzyme.

As for `O=C(NCC1CCCCN1C(=O)Nc1ccc(-c2noc(C(F)(F)F)n2)cc1)c1ccc(Cl)cc1Cl` (stereo not drawn) [Example 31], the “HDAC9 inhibitory rate (%) (1 μM)” value at HDAC9 enzyme is given as 38%. Also, the “HDAC6 inhibitory rate (%) (1 μM)” value at HDAC6 enzyme is −1%. Besides, the “HDAC1 inhibitory rate (%) (1 μM)” value on HDAC1 enzyme was −12%.

Turning to `O=C(NCC1COCCN1C(=O)Nc1ccc(-c2noc(C(F)(F)F)n2)cn1)c1ccccc1` (stereo not drawn) [Example 64, 3-((benzoylamino)methyl)-N-(5-(5-(trifluoromethyl)-1,2,4-oxadiazol-3-yl)pyridin-2-yl)morpholine-4-carboxamide], the inhibition at 1 µM on HDAC9 enzyme was found to be 94%; at HDAC6 enzyme it was 15%; on HDAC1 enzyme, 85%.

Regarding `O=C(NCC1CCCCN1C(=O)Nc1ccc(-c2noc(C(F)(F)F)n2)cc1)c1cccc(O)c1` (stereo not drawn) [Example 26, 2-(((3-hydroxybenzoyl)amino)methyl)-N-(4-(5-(trifluoromethyl)-1,2,4-oxadiazol-3-yl)phenyl)piperidine-1-carboxamide], the inhibition at 1 µM turned out to be 94% at HDAC9 enzyme, 2% on HDAC6 enzyme and 42% on HDAC1 enzyme.

Take `Cn1ccnc1C(=O)NCC1CCCCN1C(=O)Nc1ccc(-c2noc(C(F)(F)F)n2)cc1` (stereo not drawn) [Example 39, 2-((((1-methyl-1H-imidazol-2-yl)carbonyl)amino)methyl)-N-(4-(5-(trifluoromethyl)-1,2,4-oxadiazol-3-yl)phenyl)piperidine-1-carboxamide]: the inhibition at 1 µM on HDAC9 enzyme was 90%; on HDAC6 enzyme, 5%; on HDAC1 enzyme, 47%.

Values taken from US10406146B2, “Heterocyclic compound” (TAKEDA PHARMACEUTICAL COMPANY LIMITED, priority 2015, dated 2019).
